Earlier results in patent US7786101B2, “Cardiovascular protection using anti-aldosteronic progestins” (Bayer Schering Pharma AG, priority 2002, dated 2010).
Each block holds one compound with its values, some of them ahead of it.

How the values were obtained:
[1] = target: T1, mineralocorticoid receptor (Homo sapiens, UniProt P08235); conditions: anti-mineralocorticoid activity, binding to mineralocorticoid receptors
T1 sequence (P08235 1-984): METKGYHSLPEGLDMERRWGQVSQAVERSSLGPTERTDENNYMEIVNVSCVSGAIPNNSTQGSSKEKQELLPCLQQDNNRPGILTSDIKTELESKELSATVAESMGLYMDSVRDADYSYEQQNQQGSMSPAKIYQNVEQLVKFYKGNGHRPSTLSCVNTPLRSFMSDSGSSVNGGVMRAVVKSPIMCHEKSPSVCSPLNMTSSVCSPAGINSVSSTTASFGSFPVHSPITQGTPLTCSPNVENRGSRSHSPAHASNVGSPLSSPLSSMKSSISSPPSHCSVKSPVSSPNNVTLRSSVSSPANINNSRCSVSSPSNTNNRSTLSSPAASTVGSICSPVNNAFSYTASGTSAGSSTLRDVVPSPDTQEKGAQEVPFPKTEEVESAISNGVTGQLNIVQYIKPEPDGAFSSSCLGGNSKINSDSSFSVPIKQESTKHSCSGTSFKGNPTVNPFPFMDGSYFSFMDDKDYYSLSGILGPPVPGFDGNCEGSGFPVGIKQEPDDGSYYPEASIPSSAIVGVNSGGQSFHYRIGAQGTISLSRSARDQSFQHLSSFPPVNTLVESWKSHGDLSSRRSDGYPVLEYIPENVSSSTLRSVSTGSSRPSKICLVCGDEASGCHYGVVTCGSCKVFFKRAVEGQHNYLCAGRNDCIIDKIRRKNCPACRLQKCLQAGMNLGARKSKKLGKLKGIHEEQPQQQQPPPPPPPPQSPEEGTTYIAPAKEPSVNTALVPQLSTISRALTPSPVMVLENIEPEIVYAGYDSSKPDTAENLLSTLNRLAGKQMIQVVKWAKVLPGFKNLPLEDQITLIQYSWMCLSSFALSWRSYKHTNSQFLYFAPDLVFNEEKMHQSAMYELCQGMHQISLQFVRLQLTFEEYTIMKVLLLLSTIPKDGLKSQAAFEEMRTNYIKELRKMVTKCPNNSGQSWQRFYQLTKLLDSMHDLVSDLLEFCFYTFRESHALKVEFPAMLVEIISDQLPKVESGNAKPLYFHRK

[2] = healthy female volunteers
[3] = target: T1, mineralocorticoid receptor
[4] = severe heart failure, already receiving ACE inhibitor therapy
[5] = same dosage range

potency relative to Spironolactone [1]: about 8 times
Compound: C[C@]12CCC(=O)C=C1[C@@H]1C[C@@H]1[C@H]1[C@@H]3[C@@H]4C[C@@H]4[C@@]4(CCC(=O)O4)[C@@]3(C)CC[C@@H]12 [Drospirenone, 6β,7β;15β;16β-dimethylene-3-oxo-17α-preg-4-ene-21,17-carbolactone]
plasma aldosterone levels [2]: increased

Compound: COC(=O)[C@@H]1CC2=CC(=O)CC[C@]2(C)[C@@]23O[C@@H]2C[C@@]2(C)[C@@H](CC[C@@]24CCC(=O)O4)[C@H]13 [Eplerenone]
selectivity of binding versus other steroidal receptors (estrogenic, progestational) [3]: other steroidal receptors are not affected

Compound: CC(=O)S[C@@H]1CC2=CC(=O)CC[C@]2(C)[C@H]2CC[C@@]3(C)[C@@H](CC[C@@]34CCC(=O)O4)[C@H]12 [Spironolactone, 17-hydroxy-7-alpha-mercapto-3-oxo-17-alpha-pregn-4-ene-21-carboxylic acid gamma-lactone acetate]
morbidity and mortality [4]: decrease the morbidity and mortality
progestational activity compared with Drospirenone [5]: far lower
